Like-named read-outs stand apart in the source and are kept apart here.
System: patients with advanced metastatic cancer
Text: In this phase 1 study, dose escalation was followed by expansion cohorts of once-daily, oral M2698 in continuous 21-day cycles. Primary objectives were to determine the maximum tolerated dose (MTD), dose-limiting toxicities (DLTs), and recommended phase 2 dose (RP2D). Secondary objectives were to assess safety and tolerability, pharmacokinetics (PK, including food effect) and antitumor activity. Pharmacodynamic biomarker assessments were exploratory. Treatment was discontinued if there was disease progression, toxicity or consent withdrawal.
In Part 1, M2698 monotherapy was investigated in a dose escalation with a food effect cohort. In Part 2, M2698 was investigated as monotherapy (expansion cohort) to further characterize safety, tolerability and pharmacokinetics, and assess antitumor activity in PAM + patients without confounding markers (exploratory).
Dose escalation analysis included all patients who experienced a DLT and those who received ≥ 80% of planned M2698 doses in cycle 1 without experiencing a DLT. Safety analysis included all patients who received ≥ 1 dose of M2698. PK analysis included all patients who received ≥ 1 dose of M2698 and had measurable plasma concentrations. Dose proportionality was tested using the power model (linear regression approach on the log -transformed scale).

NC(=O)c1cccc2c(N[C@H](CN3CCC3)c3ccc(Cl)c(C(F)(F)F)c3)ncnc12 [M2698]
M2698-related TEAE: Abnormal dreams (15 mg n=3): 0
M2698-related TEAE: Affect lability (15 mg n=3): 0
M2698-related TEAE: Alanine aminotransferase increased (15 mg n=3): 0
M2698-related TEAE: Amylase increased (15 mg n=3): 0
M2698-related TEAE: Anaemia (15 mg n=3): 0
M2698-related TEAE: Angina pectoris (15 mg n=3): 0
M2698-related TEAE: Anxiety (15 mg n=3): 0
M2698-related TEAE: Aphasia (15 mg n=3): 0
M2698-related TEAE: Ataxia (15 mg n=3): 0
M2698-related TEAE: Blood and lymphatic system disorders (15 mg n=3): 0
M2698-related TEAE: Blood creatine phosphokinase increased (15 mg n=3): 0
M2698-related TEAE: Blood creatinine increased (15 mg n=3): 0
M2698-related TEAE: Cardiac disorders (15 mg n=3): 0
M2698-related TEAE: Cognitive disorder (15 mg n=3): 0
M2698-related TEAE: Constipation (15 mg n=3): 0
M2698-related TEAE: Decreased appetite (15 mg n=3): 0
M2698-related TEAE: Delusion (15 mg n=3): 0
M2698-related TEAE: Depression (15 mg n=3): 0
M2698-related TEAE: Diarrhoea (15 mg n=3): 0
M2698-related TEAE: Diarrhoea haemorrhagic (15 mg n=3): 0
M2698-related TEAE: Dizziness (15 mg n=3): 0
M2698-related TEAE: Dry eye (15 mg n=3): 0
M2698-related TEAE: Dry mouth (15 mg n=3): 0
M2698-related TEAE: Dysgeusia (15 mg n=3): 0
M2698-related TEAE: Dyspepsia (15 mg n=3): 0
M2698-related TEAE: Dysphagia (15 mg n=3): 0
M2698-related TEAE: Energy increased (15 mg n=3): 0
M2698-related TEAE: Erythema (15 mg n=3): 0
M2698-related TEAE: Euphoric mood (15 mg n=3): 0
M2698-related TEAE: Eye disorders (15 mg n=3): 0
M2698-related TEAE: Fatigue (15 mg n=3): 0
M2698-related TEAE: Gamma-glutamyltransferase increased (15 mg n=3): 1
M2698-related TEAE: Gastrointestinal disorders (15 mg n=3): 0
M2698-related TEAE: Gastrooesophageal reflux disease (15 mg n=3): 0
M2698-related TEAE: General disorders and administration site conditions (15 mg n=3): 0
M2698-related TEAE: Headache (15 mg n=3): 0
M2698-related TEAE: Hyperhidrosis (15 mg n=3): 0
M2698-related TEAE: Hypokalaemia (15 mg n=3): 0
M2698-related TEAE: Hypomagnesaemia (15 mg n=3): 0
M2698-related TEAE: Insomnia (15 mg n=3): 0
M2698-related TEAE: Investigations (15 mg n=3): 1
M2698-related TEAE: Lipase increased (15 mg n=3): 0
M2698-related TEAE: Lymphopenia (15 mg n=3): 0
M2698-related TEAE: Metabolism and nutrition disorders (15 mg n=3): 0
M2698-related TEAE: Mucosal inflammation (15 mg n=3): 0
M2698-related TEAE: Nausea (15 mg n=3): 0
M2698-related TEAE: Nervous system disorders (15 mg n=3): 0
M2698-related TEAE: Nightmare (15 mg n=3): 0
M2698-related TEAE: Onychomadesis (15 mg n=3): 0
M2698-related TEAE: Paranoia (15 mg n=3): 0
M2698-related TEAE: Photosensitivity reaction (15 mg n=3): 0
M2698-related TEAE: Posterior reversible encephalopathy syndrome (15 mg n=3): 0
M2698-related TEAE: Pruritus generalised (15 mg n=3): 0
M2698-related TEAE: Psychiatric disorders (15 mg n=3): 0
M2698-related TEAE: Rash (15 mg n=3): 0
M2698-related TEAE: Rash maculo-papular (15 mg n=3): 0
M2698-related TEAE: Skin and subcutaneous tissue disorders (15 mg n=3): 0
M2698-related TEAE: Subjects with at least one event (15 mg n=3): 1
M2698-related TEAE: Transaminases increased (15 mg n=3): 0
M2698-related TEAE: Tremor (15 mg n=3): 0
M2698-related TEAE: Vision blurred (15 mg n=3): 0
M2698-related TEAE: Vomiting (15 mg n=3): 0
M2698-related TEAE: White blood cell count decreased (15 mg n=3): 0
M2698-related TEAE: Abnormal dreams (30 mg n=3): 0
M2698-related TEAE: Affect lability (30 mg n=3): 0
M2698-related TEAE: Alanine aminotransferase increased (30 mg n=3): 0
M2698-related TEAE: Amylase increased (30 mg n=3): 0
M2698-related TEAE: Anaemia (30 mg n=3): 0
M2698-related TEAE: Angina pectoris (30 mg n=3): 0
M2698-related TEAE: Anxiety (30 mg n=3): 0
M2698-related TEAE: Aphasia (30 mg n=3): 0
M2698-related TEAE: Ataxia (30 mg n=3): 0
M2698-related TEAE: Blood and lymphatic system disorders (30 mg n=3): 0
M2698-related TEAE: Blood creatine phosphokinase increased (30 mg n=3): 0
M2698-related TEAE: Blood creatinine increased (30 mg n=3): 0
M2698-related TEAE: Cardiac disorders (30 mg n=3): 0
M2698-related TEAE: Cognitive disorder (30 mg n=3): 0
M2698-related TEAE: Constipation (30 mg n=3): 0
M2698-related TEAE: Decreased appetite (30 mg n=3): 0
M2698-related TEAE: Delusion (30 mg n=3): 0
M2698-related TEAE: Depression (30 mg n=3): 0
M2698-related TEAE: Diarrhoea (30 mg n=3): 1
M2698-related TEAE: Diarrhoea haemorrhagic (30 mg n=3): 0
M2698-related TEAE: Dizziness (30 mg n=3): 0
M2698-related TEAE: Dry eye (30 mg n=3): 0
M2698-related TEAE: Dry mouth (30 mg n=3): 0
M2698-related TEAE: Dysgeusia (30 mg n=3): 0
M2698-related TEAE: Dyspepsia (30 mg n=3): 0
M2698-related TEAE: Dysphagia (30 mg n=3): 0
M2698-related TEAE: Energy increased (30 mg n=3): 0
M2698-related TEAE: Erythema (30 mg n=3): 0
M2698-related TEAE: Euphoric mood (30 mg n=3): 0
M2698-related TEAE: Eye disorders (30 mg n=3): 1
M2698-related TEAE: Fatigue (30 mg n=3): 0
M2698-related TEAE: Gamma-glutamyltransferase increased (30 mg n=3): 0
M2698-related TEAE: Gastrointestinal disorders (30 mg n=3): 1
M2698-related TEAE: Gastrooesophageal reflux disease (30 mg n=3): 0
M2698-related TEAE: General disorders and administration site conditions (30 mg n=3): 0
M2698-related TEAE: Headache (30 mg n=3): 0
